Reference: patent US12195427B2, “MASP-2 inhibitors and methods of use” (priority 2018, dated 2025)

Target: MASP-2 CCP2-SP (Homo sapiens (Human), UniProt O00187)
Experiment: MASP-2 co-crystallization, X-ray crystallography and structure analysis (H-bonds, van der Waals contacts);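 on Ligand-pharmacophore element distance, pharmacophore element C2: distance from averaged pharmacophore element to bound ligand; missing value means element absent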;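 on Ligand-pharmacophore element distance, pharmacophore element C3: distance from averaged pharmacophore element to bound ligand; missing value means element absent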;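 on Ligand-pharmacophore element distance, pharmacophore element C4: distance from averaged pharmacophore element to bound ligand; missing value means element absent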;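 on Ligand-pharmacophore element distance, pharmacophore element C5: distance from averaged pharmacophore element to bound ligand; missing value means element absent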
Set-up: van der Waals contact distance, MASP-2 HIS 483 atom CD2 / van der Waals contact distance, MASP-2 HIS 483 atom NE2 / van der Waals contact distance, SER 654 C to compound atom / van der Waals contact distance, SER 654 O to compound atom / van der Waals contact distance, TRP 655 C to compound atom / van der Waals contact distance, MASP-2 GLY 528 atom CA / van der Waals contact distance TRP 655 atom CZ3 / van der Waals contact distance TRP 655 atom N / van der Waals contact distance TRP 655 atom CE3 / van der Waals contact distance GLY 656 atom C / van der Waals contact distance GLY 656 atom CA / van der Waals contact distance GLY 656 atom O / van der Waals contact distance, MASP-2 TYR 607 atom CD1 / van der Waals contact distance, MASP-2 PRO 606 atom O / d(C3,CA1) / d(CA1,N1)2 / d(H4,O1) / d(H4,O2) / d(O1,O2) / d(CA1,O2) / d(CA6,O1) / d(CA6,O2) / d(CA1,C5) / d(O2,H3) / d(N2,C2) / d(CA5,N2) / d(N2,C4) / d(N2,C6) / d(N2,CA3) / d(N2,O3) / d(O4,H2): unit not given beside the values
Settings: for Ligand-pharmacophore element distance, pharmacophore element C2 / Ligand-pharmacophore element distance, pharmacophore element C3 / Ligand-pharmacophore element distance, pharmacophore element C4 / Ligand-pharmacophore element distance, pharmacophore element C5 / Ligand-pharmacophore element distance, pharmacophore element C6 / Ligand-pharmacophore element distance, pharmacophore element C7 / Ligand-pharmacophore element distance, pharmacophore element CA1 / Ligand-pharmacophore element distance, pharmacophore element CA2 / Ligand-pharmacophore element distance, pharmacophore element CA3 / Ligand-pharmacophore element distance, pharmacophore element CA4 / Ligand-pharmacophore element distance, pharmacophore element CA5 / Ligand-pharmacophore element distance, pharmacophore element CA6: Table A4-1; for d(CA1,O1) / d(CA1,O2) / d(H4,O1) / d(H4,O2) / d(O1,O2): Table A5-1 pharmacophore: distance between elements, S2/S1 region; for a(CA1, O1, O2) / a(O1, O2, H4): Table A6-1 pharmacophore angle; for Pharmacophore torsion angle a(O1, O2, N2, CA2): Table A7-2; for Pharmacophore protein distance to MET_658 (first MET_658 column) / Pharmacophore protein distance to MET_658 (second MET_658 column) / Pharmacophore protein distance to GLY_528 / Pharmacophore protein distance to PHE_529 / Pharmacophore protein distance to PRO_608 / Pharmacophore protein distance to SER_611 / Pharmacophore protein distance to TRP_655: Table A8-6, nearest protein atom in cell to the left; for Pharmacophore protein distance to MET_658 (first MET_658 column): 6th residue column; for Pharmacophore protein distance to MET_658 (second MET_658 column): 9th residue column; for Pharmacophore protein distance to TRP_655: pharmacophore elements C6, CA3, O3, H1
Excerpt: This example illustrates the preparation of recombinant MASP-2 protein, based on UniProt O00187, human mannan-binding lectin serine protease 2. Expression constructs for human MASP-2 CCP2-SP and CCP2-SP-6HIS were generated for recombinant expression in E. coli cells.
Typically, crystallization hits were obtained by screening against […] 96-well crystallization reagent kits (GRAS6, GRAS2, Hampton Research; MORPHEUS, Molecular Dimensions; Wizard 1&2 Cryo, Rigaku Reagents) and crystal growth was inspected by optical microscopy. Crystals were used directly or further optimized for X-ray diffraction. Crystals were captured with cryogenic loops and dipped into liquid nitrogen directly or cryoprotected with a 20% glycerol in crystallization formulation before flash-cooling in liquid nitrogen.
Thereafter crystals are transferred once or twice for soaking within the crystallization solution containing the MASP-2 inhibitor.
Crystals were diffracted with synchrotron X-rays of […] and X-ray diffraction datasets were collected at beamlines SSRL BL9-2, BL14-1, BL12-2 as well as ALS sector 5 using Dectris Pilatus and Eiger detectors. Structures were determined by molecular replacement using portions of the structure 1Q3X as search models and partially refined with Buster 2.10.2 or Refmac 5.8. […] When multiple ligand poses were observed, for instance arising from multiple molecules in the asymmetric unit or refined dual poses within the same molecule, only one pose was selected and analyzed.
LigPlot+ calls these ‘nonbonded contacts’ or ‘hydrophobic contacts’. Despite the name, there are atom pairings that include possible H-bonds. Thus, in some instances, the Table A2 also contains H-bond interactions.

[1] = Table A5-2 pharmacophore distance, S3/S4 region
[2] = Table A7-1, between pharmacophore elements of the bound compound
[3] = between pharmacophore elements of the bound compound

Chain of MASP-2 CCP2-SP (O00187 445-686): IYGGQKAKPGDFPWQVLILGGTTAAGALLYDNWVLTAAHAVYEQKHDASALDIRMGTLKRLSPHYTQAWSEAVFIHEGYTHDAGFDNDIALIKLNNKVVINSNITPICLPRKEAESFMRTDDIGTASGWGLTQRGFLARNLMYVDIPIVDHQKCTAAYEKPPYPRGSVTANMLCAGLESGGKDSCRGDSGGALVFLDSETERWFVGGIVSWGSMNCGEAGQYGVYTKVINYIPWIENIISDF
Chain of MASP-2 CCP2-SP (O00187 364-432 partner): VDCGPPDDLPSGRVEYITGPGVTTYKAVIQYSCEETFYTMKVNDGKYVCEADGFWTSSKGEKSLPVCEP

Row | SMILES | Ligand-pharmacophore element distance, pharmacophore element C2 | Ligand-pharmacophore element distance, pharmacophore element C3 | Ligand-pharmacophore element distance, pharmacophore element C4 | Ligand-pharmacophore element distance, pharmacophore element C5 | Ligand-pharmacophore element distance, pharmacophore element C6 | Ligand-pharmacophore element distance, pharmacophore element C7 | Ligand-pharmacophore element distance, pharmacophore element CA1 | Ligand-pharmacophore element distance, pharmacophore element CA2 | Ligand-pharmacophore element distance, pharmacophore element CA3 | Ligand-pharmacophore element distance, pharmacophore element CA4 | Ligand-pharmacophore element distance, pharmacophore element CA5 | Ligand-pharmacophore element distance, pharmacophore element CA6 | d(CA1,O1) | d(CA1,O2) | d(H4,O1) | d(H4,O2) | d(O1,O2) | d(N2,CA2) [1] | d(O2,H3) [1] | d(O2,N2) [1] | further results
1 | C[C@H](NC(=O)[C@H](N)C1Cc2ccccc2C1)C(=O)NCc1ccc2c(N)nccc2c1.Cl.Cl [1088_B] | 1.93 | 0 | 0 | 0 | 0 | 0 | 0.62 | 0.2 | 0 | 0 | 0 | 0 | 5.22 | 4.78 | 6.73 | 6.06 | 3.02 | 6.13 | 3.82 | 2.68 | d(N2,C2) [1]: 3.90; a(CA1, O1, O2): 99.27; a(O1, O2, H4): 153.40; a(O1, O2, H3) (Table A6-2 pharmacophore angle): 144.52; a(O1, O2, N2) (Table A6-2 pharmacophore angle): 135.22; a(O2, N2, C2) (Table A6-2 pharmacophore angle): 140.65; a(O2, N2, CA2) (Table A6-2 pharmacophore angle): 154.54; Pharmacophore torsion angle a(H4, O1, O2, H3) [2]: 45.99; Pharmacophore torsion angle a(H4, O1, O2, N2) [2]: 121.15; Pharmacophore torsion angle a(O1, H4, O2, CA1) [2]: −63.34; Pharmacophore torsion angle a(O1, O2, N2, C2) [2]: 129.99; Pharmacophore torsion angle a(O1, O2, N2, CA2) [3]: 134.51; Pharmacophore protein distance to MET_658 (first MET_658 column): 3.04; Pharmacophore protein distance to MET_658 (second MET_658 column): 3.12; Pharmacophore protein distance to GLY_528: 3.66; Pharmacophore protein distance to PHE_529: 2.75; Pharmacophore protein distance to PRO_608: 3.74; Pharmacophore protein distance to SER_611: 2.71; Pharmacophore protein distance to TRP_655: 3.75
2 | C[C@H](NC(=O)[C@H]1C[C@@H](c2ccccc2)CN1)C(=O)NCc1ccc2c(N)nccc2c1.Cl.Cl [1089_A] | 0 | 0 | 0 | 0 | 0 | 0 | 1 | 0.89 | 0 | 0 | 0 | 0 | 5.75 | 5.19 | 3.13 | 3.70 | 3.34 | 5.10 | 5.94 | 2.66 | a(CA1, O1, O2): 98.23; a(O1, O2, H4): 122.16; a(O1, O2, H3) (Table A6-2 pharmacophore angle): 153.00; a(O1, O2, N2) (Table A6-2 pharmacophore angle): 141.72; a(O2, N2, CA2) (Table A6-2 pharmacophore angle): 154.37; Pharmacophore torsion angle a(H4, O1, O2, H3) [2]: 88.95; Pharmacophore torsion angle a(H4, O1, O2, N2) [2]: −175.67; Pharmacophore torsion angle a(O1, H4, O2, CA1) [2]: −95.88; Pharmacophore torsion angle a(O1, O2, N2, CA2) [3]: 137.41; Pharmacophore protein distance to MET_658 (first MET_658 column): 2.61; Pharmacophore protein distance to MET_658 (second MET_658 column): 3.31; Pharmacophore protein distance to GLY_528: 3.59; Pharmacophore protein distance to PHE_529: 2.81; Pharmacophore protein distance to PRO_608: 3.90; Pharmacophore protein distance to SER_611: 2.79; Pharmacophore protein distance to TRP_655: 3.57
